Laboratory results as given in US20180201594A1, “Compound pac-1 or salt thereof and pharmaceutical composition comprising same” (priority 2015, published 2018).
≈ marks a conversion by molar mass, not a printed value. Marks after values point to notes of the source that are not given here.

Columns and labels:
Caspase-3 = Caspase-3 protein expression in HGC-27 cells (immunofluorescence); type: cell-based; conditions: n = 6
Description: (§1) The sterilized cell transfer membrane was taken and placed into a 24-well plate, which was seeded with 1 mL (1×10^5 cells/mL) cell suspension, and cultured for 24 h. Drug-containing medium was added, The negative control groups and administration groups were set, with the experimental groups intervened for 24-48 h. The plate was washed with PBS, and fixed with 4% paraformaldehyde for 15 min. It was treated with 0.1% TritonX-100, and washed with PBS, blocked with 1:10 diluted normal serum blocking solution for 15 min. The plate was added 1:100 diluted primary antibody, placed at 4° C. overnight. The plate was washed with PBS, to which 1:100 diluted secondary antibodies was added and incubated at room temperature for 30 min. The plate was washed with PBS, to which 1:100 diluted SABC-FITC was added, and re-incubated at room temperature for additional 30 min. The unbound FITC was washed with PBS. We observed and taken pictures under fluorescence microscope, and analyzed the fluorescence intensity by Bioflux Montage software. 6 fields were selected randomly under microscope for each group and the integral optical density value of cells was calculated.

[1] = Solubility comparison of ZYS-1 and PAC-1 needle crystal (HPLC); type: physicochemical; conditions: room temperature
Description: The appropriate amounts of ZYS-1 and PAC-1 needle crystal were dissolved into the appropriate amount of methanol, absolute ethanol, 95% ethanol, acetonitrile, ethyl ether, ethyl acetate, propanol, acetone, respectively, and sonicated for 1 hour, then left at room temperature for 24 hours to obtain the oversaturated solution. After centrifugation at 4000 r/min for 5 min, the supernatant was diluted appropriately and filtered through a 0.45 μm needle filter. The concentration was determined by HPLC and the solubility was calculated.

HT-1080 cells [2] = assay: HT-1080 cell invasion (Transwell, matrigel); type: cell-based, human
Description: The matrigel was thawed at 4° C. overnight and diluted with serum-free medium precooled at 4° ? t 1:2. 30 μL of the diluted matrigel was added vertically in the center of the bottom of the upper chamber, allowed to stand at r.m. for 20 min, and then incubated at 37° C. for 60 min. It was observed under the microscope until gelling, hydrated with the serum-free medium for use. The treated tumor cells with drugs for 48 h were digested and collected, and then the cells were suspended with serum free medium. The cell intensity was adjusted into 2.5×10^5 cells/mL, and kept cultured in the incubator for another 24 h. The upper chamber was taken, with methanol fixation for 30 min, dyed with Giemsa stain for 30 min, rinsed with clean water twice. The cells on the bottom membrane surface of the upper chamber were carefully wiped off with a wet cotton swab, dried in the air. With the bottom up, they were transferred onto glass slide and sealed with neutral gum. Under the microscope, nine random fields were taken and the transmembrane cells therein were counted. The average values were statistically calculated.

HGC-27 cells = assay: Two-dimensional migration (cell scratch assay); type: cell-based; conditions: n = 3
Description: HGC-27 cells in logarithmic growth phase were collected. The cell with density of 5×10^5 cells/mL was spread onto 24-well plates (0.5 mL per well). RMPI-1640 culture medium with 10% fetal bovine serum was added and cultured for 24 h to form monolayer cells. The monolayer cells were scratched in a line by 20 μL pipette gun tip, which was washed with PBS three times. Then, drug-containing media with 2% fetal bovine serum s were added, which concentrations were 2 μM, 4 μM, respectively. The media were cultured in the incubator with 37 ? , 5% CO2 saturated humidity. Sampled at 0, 4, 8, 12 h and took the pictures. The area where cells were migrated from scratch edge to scratch within the same field was counted by software.

HT-1080 cells [3] = assay: Three-dimensional migration (Transwell assay), HT-1080; type: cell-based, human; conditions: for Cell number (transmembrane cells): 24 h, n = 9
Description: Starved cells were digested and collected, which were suspended in serum-free medium. The cell intensity was adjusted into 3×10^5 s cells/mL. 100 μL of the cell suspension was added into the upper chamber and 700 μL of medium with 10% serum to the lower chamber per well. According to the experimental design, 50 μL serum-free medium was added per well for the control group, 50 μL of drug-containing serum-free medium was added for the administration groups. They were continued to be cultured in the incubator for another 24 h. The upper chamber was taken, with methanol fixation for 30 min, dyed with Giemsa stain for 30 min, rinsed with clean water twice. The cells on the bottom membrane surface of the upper chamber were carefully wiped off with a wet cotton swab, dried in the air. With the bottom up, they were transferred onto glass slide and sealed with neutral gum. Under the microscope, nine random fields were taken and the transmembrane cells therein were counted. The average values were statistically calculated.

HUVECs = assay: HUVEC viability (MTT method); type: cell-based; conditions: Homo sapiens, 48 h
Description: Test Methods: The effect of ZYS-1 on the viability of HUVECs was determined by MTT method. The HUVECs in logarithmic growth phase were taken and digested with 0.25% trypsin, centrifuged and resuspended in ECM complete medium to formulate into […] single cell suspension. The cells were seeded in 96-well culture plates at a density of 1×10^4 cells/well, with a volume of 100 μL per well. They were placed and cultured in the incubator with 37®, 5% CO2. After culturing 24 h, […] different concentrations of ZYS-1 solution were added to obtain the final concentrations of drugs at 0.1, 0.5, 1, 5, 10, 50 and 100 μM. Meanwhile, the positive control group was set as etoposide at a final concentration of 10 μM, and the negative control was an equal amount of 0.1% DMSO solution. Each concentration of the experimental groups and the control groups all were set five replicates, with 100 μL of drugs per well. The blank control group is additionally set as 200 μL complete medium. The cells were placed and cultured in the incubator with 37 m, 5% CO2. After culturing for 48 h, 20 μL MTT solution (5 mg/mL) was added to each well, which was continued to be cultured for another 4 h. […] The light absorbance value of each well was measured by enzyme-linked immunosorbent assay. The measured wavelength was 570 nm and the result was recorded. […]

XIAP = XIAP protein expression in HGC-27 cells (immunofluorescence); type: cell-based; conditions: n = 6
Description: as §1

[4] = Homo sapiens, HT-1080, 24 h, read-out: Inhibition Rate

C=CCc1cccc(/C=N/NC(=O)CN2CCN(Cc3ccccc3)CC2)c1O [ZYS-1, 1-Piperazineacetic acid, 4-(phenylmethyl)-2-[[2-hydroxy-3-(2-propen-1-yl)phenyl]methylene]]
Caspase-3 protein expression (integral optical density value) (Caspase-3; 4 μM): 37.26 ± 0.39
Caspase-3 protein expression (integral optical density value) (Caspase-3; 8 μM): 39.36 ± 1.20
Solubility ([1]; 95% ethanol): 18.51 mg/mL (≈ 47.2 mM)
Solubility ([1]; Absolute ethanol): 23.53 mg/mL (≈ 59.9 mM)
Solubility ([1]; Acetone): 128.97 mg/mL (≈ 329 mM)
Solubility ([1]; Acetonitrile): 28.74 mg/mL (≈ 73.2 mM)
Solubility ([1]; Chloroform): 344.73 mg/mL (≈ 878 mM)
Solubility ([1]; Diethyl ether): 6.31 mg/mL (≈ 16.1 mM)
Solubility ([1]; Ethyl acetate): 40.08 mg/mL (≈ 102 mM)
Solubility ([1]; Methanol): 35.15 mg/mL (≈ 89.6 mM)
Solubility ([1]; Propanol): 25.55 mg/mL (≈ 65.1 mM)
numbers of invasive cells (HT-1080 cells [2]; 2 μM and 4 μM administration groups): smaller than those from the control group
numbers of invasive cells (HT-1080 cells [2]; 8 μM administration group): No cell from 8 μM administration group invaded into the lower chamber
area of cell migration into scratch (HGC-27 cells; 2 μM, 4 h): 0.12 ± 0.01 mm^2
area of cell migration into scratch (HGC-27 cells; 2 μM, 8 h): 0.16 ± 0.02 mm^2
area of cell migration into scratch (HGC-27 cells; 2 μM, 12 h): 0.20 ± 0.02 mm^2
area of cell migration into scratch (HGC-27 cells; 4 μM, 4 h): 0.04 ± 0.01* mm^2
area of cell migration into scratch (HGC-27 cells; 4 μM, 8 h): 0.07 ± 0.01* mm^2
area of cell migration into scratch (HGC-27 cells; 4 μM, 12 h): 0.08 ± 0.02** mm^2
Cell number (transmembrane cells) (HT-1080 cells [3]; 2 μM): 24.67 ± 8.46
Cell number (transmembrane cells) (HT-1080 cells [3]; 4 μM): 16.58 ± 4.18
Cell number (transmembrane cells) (HT-1080 cells [3]; 8 μM): 16.08 ± 5.07
inhibition at 2 µM (HT-1080 cells [3]; [4]): 33.5%
inhibition at 4 µM (HT-1080 cells [3]; [4]): 55.3%
inhibition at 8 µM (HT-1080 cells [3]; [4]): 56.6%
IC50 (HUVECs): 2540 nM
XIAP protein expression (integral optical density value) (XIAP; 4 μM): 38.22 ± 0.81
XIAP protein expression (integral optical density value) (XIAP; 8 μM): 36.27 ± 1.03
